Results as given in patent US8536354B2, “Steroidal ligands and their use in gene switch modulation” (Intrexon Corporation, priority 2008, dated 2013).
pEC50: −log10 of the molar value. Read-outs that look alike come from different tables or passages of the source.

Assays:
[1] = biological target: wild-type Drosophila melanogaster EcR (DmEcR; GAL4-EcR DEF with VP16-RXR-USP chimera) (Drosophila melanogaster, UniProt P34021); assay: Two-hybrid gene switch assay, luciferase reporter, wild-type DmEcR, mouse NIH3T3 cells; format: cell-based
[2] = system: NcEcR (GAL4-EcR DEF with VP16-RXR partner); assay: Two-hybrid gene switch assay, luciferase reporter, NcEcR, mouse NIH3T3 cells
[3] = biological target: T1, BaEcR (GAL4-EcR DEF with VP16-RXR-USP chimera) (Bemisia tabaci, UniProt A0A6M3RDR8); assay: Two-hybrid gene switch assay, luciferase reporter, BaEcR, mouse NIH3T3 cells
T1 sequence (A0A6M3RDR8 115-530): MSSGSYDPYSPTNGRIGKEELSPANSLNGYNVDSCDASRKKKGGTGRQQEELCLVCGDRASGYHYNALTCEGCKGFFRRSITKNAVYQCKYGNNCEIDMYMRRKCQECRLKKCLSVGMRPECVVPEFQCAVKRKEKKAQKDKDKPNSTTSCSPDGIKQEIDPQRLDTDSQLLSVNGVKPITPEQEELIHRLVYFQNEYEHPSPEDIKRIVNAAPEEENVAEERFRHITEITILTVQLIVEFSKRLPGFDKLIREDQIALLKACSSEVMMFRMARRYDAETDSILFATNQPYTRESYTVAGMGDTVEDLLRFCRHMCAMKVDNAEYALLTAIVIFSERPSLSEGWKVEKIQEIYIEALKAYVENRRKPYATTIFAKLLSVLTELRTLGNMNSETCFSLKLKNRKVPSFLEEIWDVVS
T1 sequence (P28702 1-533 partner): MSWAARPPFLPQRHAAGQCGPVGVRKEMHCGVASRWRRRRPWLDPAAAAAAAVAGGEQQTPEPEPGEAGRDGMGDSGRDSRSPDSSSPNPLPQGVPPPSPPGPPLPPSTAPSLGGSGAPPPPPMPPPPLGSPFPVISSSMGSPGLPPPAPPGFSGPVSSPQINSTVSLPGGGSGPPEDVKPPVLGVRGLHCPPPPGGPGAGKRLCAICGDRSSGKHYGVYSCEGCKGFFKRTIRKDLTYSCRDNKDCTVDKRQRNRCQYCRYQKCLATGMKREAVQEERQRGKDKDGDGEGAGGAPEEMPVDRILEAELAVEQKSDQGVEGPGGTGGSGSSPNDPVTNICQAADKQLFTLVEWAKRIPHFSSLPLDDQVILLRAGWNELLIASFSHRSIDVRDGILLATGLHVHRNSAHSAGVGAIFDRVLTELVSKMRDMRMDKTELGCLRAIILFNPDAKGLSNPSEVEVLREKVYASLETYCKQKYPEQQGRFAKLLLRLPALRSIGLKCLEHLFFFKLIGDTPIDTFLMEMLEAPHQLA

[4] = biological target: T2, MsEcR (GAL4-EcR DEF with VP16-RXR-USP chimera) (Manduca sexta, UniProt P49883); assay: Two-hybrid gene switch assay, luciferase reporter, MsEcR, mouse NIH3T3 cells
T2 sequence (P49883 1-556): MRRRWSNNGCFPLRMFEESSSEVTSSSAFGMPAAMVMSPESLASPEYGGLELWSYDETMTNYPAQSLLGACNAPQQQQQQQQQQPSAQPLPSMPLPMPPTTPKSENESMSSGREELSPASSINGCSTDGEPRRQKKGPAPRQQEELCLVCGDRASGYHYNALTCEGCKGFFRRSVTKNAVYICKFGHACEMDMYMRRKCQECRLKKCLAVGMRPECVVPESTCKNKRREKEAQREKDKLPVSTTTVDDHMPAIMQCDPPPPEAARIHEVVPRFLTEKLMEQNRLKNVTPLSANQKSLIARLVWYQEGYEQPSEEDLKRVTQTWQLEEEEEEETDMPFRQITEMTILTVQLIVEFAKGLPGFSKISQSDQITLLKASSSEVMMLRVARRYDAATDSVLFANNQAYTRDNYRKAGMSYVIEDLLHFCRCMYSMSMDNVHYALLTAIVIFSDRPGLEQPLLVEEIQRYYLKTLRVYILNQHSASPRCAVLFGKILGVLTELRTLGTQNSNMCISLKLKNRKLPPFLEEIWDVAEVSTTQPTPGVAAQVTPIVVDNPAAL
T2 sequence (P28702 1-533 partner): T1 sequence (P28702 1-533 partner)

[5] = biological target: BmEcR (GAL4-EcR DEF with VP16-RXR-USP chimera) (Bombyx mori, UniProt P49881); assay: Two-hybrid gene switch assay, luciferase reporter, BmEcR, mouse NIH3T3 cells; format: cell-based
[6] = biological target: T3, TmEcR (GAL4-EcR DEF with VP16-RXR partner) (Tenebrio molitor, UniProt O02035); assay: Two-hybrid gene switch assay, luciferase reporter, TmEcR, mouse NIH3T3 cells
T3 sequence (O02035 194-491): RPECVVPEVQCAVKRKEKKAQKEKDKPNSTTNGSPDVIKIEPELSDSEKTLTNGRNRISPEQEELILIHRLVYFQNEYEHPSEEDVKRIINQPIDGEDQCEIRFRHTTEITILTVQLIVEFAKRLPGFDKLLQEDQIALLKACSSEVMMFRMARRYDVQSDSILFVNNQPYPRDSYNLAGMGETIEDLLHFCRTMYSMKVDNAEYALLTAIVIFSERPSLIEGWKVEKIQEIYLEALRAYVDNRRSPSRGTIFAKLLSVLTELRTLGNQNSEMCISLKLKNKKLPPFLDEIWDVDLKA
T3 sequence (P28704 1-520 partner): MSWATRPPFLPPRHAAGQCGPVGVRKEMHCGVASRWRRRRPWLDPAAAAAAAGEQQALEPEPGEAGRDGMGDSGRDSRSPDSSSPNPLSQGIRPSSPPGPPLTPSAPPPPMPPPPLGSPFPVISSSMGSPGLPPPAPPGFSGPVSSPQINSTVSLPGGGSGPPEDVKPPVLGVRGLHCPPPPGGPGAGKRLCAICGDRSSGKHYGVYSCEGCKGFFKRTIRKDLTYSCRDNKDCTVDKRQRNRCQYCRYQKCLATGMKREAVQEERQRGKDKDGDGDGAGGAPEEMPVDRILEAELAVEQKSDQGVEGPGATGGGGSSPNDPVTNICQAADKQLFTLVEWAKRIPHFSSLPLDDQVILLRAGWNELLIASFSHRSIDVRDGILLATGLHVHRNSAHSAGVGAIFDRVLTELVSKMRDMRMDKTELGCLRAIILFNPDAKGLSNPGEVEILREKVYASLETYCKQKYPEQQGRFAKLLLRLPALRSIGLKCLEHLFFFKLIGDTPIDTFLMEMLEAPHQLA

[7] = EC50, FIG. 14A/14B, GAL4-EcR(DEF) with VP16-RXR-USP chimera
[8] = EC50, FIG. 16, GAL4-EcR (DEF) / VP16-RXR-USP chimera
[9] = EC50, FIG. 13A/13B, GAL4-EcR(DEF) with VP16-RXR-USP chimera
[10] = EC50, FIG. 15, GAL4-EcR (DEF) / VP16-RXR-USP chimera
[11] = EC50, FIG. 13A/13B, BmEcR, GAL4-EcR(DEF) with VP16-RXR-USP chimera
[12] = EC50, FIG. 15, BmEcR, GAL4-EcR (DEF) / VP16-RXR-USP chimera
[13] = EC50, FIG. 14A/14B, GAL4-EcR(DEF)

BmEcR (GAL4-EcR DEF with VP16-RXR-USP chimera), sequence (P49881 other isoform, or with tags, fused parts or gaps, change not shown): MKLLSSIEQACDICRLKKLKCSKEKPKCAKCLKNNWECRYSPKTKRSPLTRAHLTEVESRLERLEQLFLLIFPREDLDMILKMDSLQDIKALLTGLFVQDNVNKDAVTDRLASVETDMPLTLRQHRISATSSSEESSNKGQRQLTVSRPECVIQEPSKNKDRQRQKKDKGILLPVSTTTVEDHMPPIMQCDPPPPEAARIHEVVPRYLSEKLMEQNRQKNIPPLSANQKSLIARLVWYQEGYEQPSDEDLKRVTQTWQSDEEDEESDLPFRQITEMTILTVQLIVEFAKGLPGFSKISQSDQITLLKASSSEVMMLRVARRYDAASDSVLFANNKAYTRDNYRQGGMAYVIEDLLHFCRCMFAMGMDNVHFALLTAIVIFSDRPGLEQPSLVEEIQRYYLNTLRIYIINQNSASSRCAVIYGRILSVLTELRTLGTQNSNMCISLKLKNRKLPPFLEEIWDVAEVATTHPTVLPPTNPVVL
wild-type Drosophila melanogaster EcR (DmEcR; GAL4-EcR DEF with VP16-RXR-USP chimera), sequence (P34021 with tags, fused parts or gaps limits assumed): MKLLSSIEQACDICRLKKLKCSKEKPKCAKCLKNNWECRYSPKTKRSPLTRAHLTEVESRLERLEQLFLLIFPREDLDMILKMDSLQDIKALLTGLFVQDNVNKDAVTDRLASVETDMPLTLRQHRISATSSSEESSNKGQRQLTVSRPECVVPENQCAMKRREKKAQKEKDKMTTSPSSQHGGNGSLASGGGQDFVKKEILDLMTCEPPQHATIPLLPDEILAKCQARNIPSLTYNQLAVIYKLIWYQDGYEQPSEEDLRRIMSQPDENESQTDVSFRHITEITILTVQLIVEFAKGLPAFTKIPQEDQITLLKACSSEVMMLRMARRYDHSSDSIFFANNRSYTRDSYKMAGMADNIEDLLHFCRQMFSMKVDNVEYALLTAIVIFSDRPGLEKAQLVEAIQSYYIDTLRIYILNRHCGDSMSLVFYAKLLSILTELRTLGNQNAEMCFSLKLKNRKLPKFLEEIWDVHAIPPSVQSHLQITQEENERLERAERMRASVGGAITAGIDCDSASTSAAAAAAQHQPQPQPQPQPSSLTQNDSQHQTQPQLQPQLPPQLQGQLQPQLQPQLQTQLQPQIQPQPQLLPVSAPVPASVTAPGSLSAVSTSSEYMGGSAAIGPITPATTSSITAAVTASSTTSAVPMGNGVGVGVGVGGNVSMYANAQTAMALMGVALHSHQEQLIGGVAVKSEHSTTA

| SMILES | pEC50 [1, 7] | pEC50 [1, 8] | pEC50 ([2]; FIG. 14A/14B, GAL4-EcR(DEF)) | pEC50 ([2]; FIG. 16, GAL4-EcR (DEF)) | pEC50 [3, 7] | pEC50 [3, 8] | pEC50 [4, 9] | pEC50 [4, 10] | pEC50 [5, 11] | pEC50 [5, 12] | pEC50 [6, 13] | pEC50 ([6]; EC50, FIG. 16, GAL4-EcR (DEF)) | pEC50 ([5]; read-out: EC50) |
| --- | --- | --- | --- | --- | --- | --- | --- | --- | --- | --- | --- | --- | --- |
| C[C@H]([C@H](O)CCC(C)(C)O)[C@H]1CC[C@@]2(O)C3=CC(=O)[C@@H]4C[C@@H](O)[C@@H](O)C[C@]4(C)[C@H]3CC[C@]12C [ecdysone] | < 4.48 | < 4.48 | 5.49 | 5.60 | < 4.48 | < 4.48 | < 4.48 | < 4.48 | < 4.48 | < 4.48 | < 4.48 | < 4.48 | – |
| CC(C)(O)CC[C@@H](O)[C@](C)(O)[C@H]1CC[C@@]2(O)C3=CC(=O)[C@@H]4C[C@@H](O)[C@@H](O)[C@@H](O)[C@]4(C)[C@H]3CC[C@]12C [integristerone A] | < 4.48 | – | ~5.70 | – | ~4.70 | – | ~4.92 | – | – | – | ~5.10 | – | < 4.48 |
| CC(CC(O)C(C)(O)C1CCC2(O)C3=CC(=O)C4CC(O)C(O)CC4(C)C3CCC12C)C(C)(C)O (centres unmarked) [makisterone A] | ~4.70 | – | 6.93 | – | ~4.82 | – | ~5.00 | – | – | – | ~4.70 | – | < 4.48 |
| CCC(CC(O)C(C)(O)C1CCC2(O)C3=CC(=O)C4CC(O)C(O)CC4(C)C3CCC12C)C(C)(C)O (centres unmarked) [makisterone C] | ~5.30 | – | ~7.00 | – | ~5.48 | – | ~5.40 | – | – | – | ~5.40 | – | < 4.48 |
| CC(C)(O)CC[C@@H](O)[C@](C)(O)[C@H]1CC[C@@]2(O)C3=CC(=O)[C@]4(O)C[C@@H](O)[C@@H](O)C[C@]4(C)[C@H]3CC[C@]12C [polypodine B] | ~5.70 | 5.60 | ~7.00 | 7.30 | ~5.48 | – | ~5.70 | 5.36 | ~5.10 | ~5.05 | ~5.00 | ~5.52 | – |
| CC(C)=CC[C@@H](O)[C@](C)(O)[C@H]1CC[C@@]2(O)C3=CC(=O)[C@@H]4C[C@@H](O)[C@@H](O)C[C@]4(C)[C@H]3CC[C@]12C [stachysterone C] | 6.41 | – | 7.89 | – | 6.18 | – | 6.17 | – | ~5.30 | – | 5.83 | – | – |
| CCCCCC(=O)OC1CC2(C)C(C(C)(O)C(O)CCC(C)(C)O)CCC2(O)C2=CC(=O)C3CC(O)C(O)CC3(C)C21 (centres unmarked) [turkesterone-11 a -hexanoate] | < 4.48 | – | ~5.15 | – | < 4.48 | – | < 4.48 | – | < 4.48 | – | < 4.48 | – | – |
| CCC(=O)OC1CC2(C)C(C(C)(O)C(O)CCC(C)(C)O)CCC2(O)C2=CC(=O)C3CC(O)C(O)CC3(C)C21 (centres unmarked) [turkesterone-11 a -propionate] | < 4.48 | – | ~5.00 | – | < 4.48 | – | < 4.48 | – | < 4.48 | – | < 4.48 | – | – |
| CCCCCCCCCC(=O)OC1CC2(C)C(C(C)(O)C(O)CCC(C)(C)O)CCC2(O)C2=CC(=O)C3CC(O)C(O)CC3(C)C21 (centres unmarked) [turkesterone-11a-decanoate] | < 4.48 | – | < 4.48 | – | < 4.48 | – | < 4.48 | – | < 4.48 | – | < 4.48 | – | – |
| CC(C)(O)CC[C@@H](O)[C@](C)(O)[C@H]1CC[C@@]2(O)C3=CC(=O)[C@@H]4C[C@@H](O)[C@@H](O)C[C@]4(C)[C@H]3[C@H](O)C[C@]12C [turkesterone] | ~4.82 | – | 5.87 | – | ~4.70 | – | ~4.92 | – | < 4.48 | – | < 4.48 | – | – |
